Where “and” joins values, the source holds several entries; their conditions need not be identical. Equal values may be shown once. Read-outs that look alike come from different tables or passages of the source.
Legend:
memapsin 2 = target: T1, memapsin 2 (Homo sapiens, UniProt P56817); experiment: Inhibition of memapsin 2 proteolytic activity, fluorogenic substrate FS-2; assay type: biochemical; details: for % Inhibition Mep2: enzyme concentration equals the compound concentration; for % Inh (M1/M2): ratio of % inhibition memapsin 1 / memapsin 2, 1 or less = greater inhibition of memapsin 2; for Vi/Vo: ratio of initial cleavage velocities of FS-2 with/without compound, enzyme and inhibitor concentrations equal (e.g., about 80 nM, 100 nM); for Selectivity: Ki for memapsin 2 lower than Ki for memapsin 1: memapsin 2 relative to memapsin 1
T1 construct: pET-11 vector-derived residues 1-15 of promemapsin 2-T1 (N, cleaved yes); made in house; host or cells: E. coli
Procedure, shortened: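 Inhibitors tested at about 10 nM to 10 μM in pH 4.0 0.1 M sodium acetate containing 10% (v/v) DMSO, after 20 min preincubation at 37 °C with 80 nM self-activated memapsin 2. Substrate-independent Ki derived from apparent Ki via Km and substrate level.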

memapsin 1 = target: T2, memapsin 1 (Homo sapiens, UniProt Q9Y5Z0); experiment: Inhibition of memapsin 1 proteolytic activity, fluorogenic substrate FS-2; assay type: biochemical; details: for % Inhibition Mep1: enzyme concentration equals the compound concentration
T2 construct: pET-11 vector-derived residues 1-14 of promemapsin 1-T1 (N, cleaved yes); made in house; host or cells: E. coli
T2 sequence (Q9Y5Z0 63-466 limits assumed): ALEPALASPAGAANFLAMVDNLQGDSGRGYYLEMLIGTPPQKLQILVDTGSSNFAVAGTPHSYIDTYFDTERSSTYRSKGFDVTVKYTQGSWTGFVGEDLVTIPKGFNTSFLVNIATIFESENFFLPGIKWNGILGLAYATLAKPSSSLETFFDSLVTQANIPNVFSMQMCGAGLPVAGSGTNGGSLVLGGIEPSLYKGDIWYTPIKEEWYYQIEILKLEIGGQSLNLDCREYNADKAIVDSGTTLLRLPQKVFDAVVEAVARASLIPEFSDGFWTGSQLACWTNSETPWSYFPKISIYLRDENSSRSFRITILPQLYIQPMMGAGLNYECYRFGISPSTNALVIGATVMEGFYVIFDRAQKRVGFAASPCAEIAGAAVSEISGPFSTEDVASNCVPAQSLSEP
Method: Vi/Vo depicts the ratio of initial cleavage velocities of the substrate FS-2 (Ermolieff, et al., Biochemistry […]:12450-12456 (2000)) by memapsin 1 or memapsin 2 in the absence (Vo) or presence (Vi) of a compound of the invention. […] The Vi/Vo values depicted in Table 1 were determined at conditions under which the enzyme and inhibitor concentrations were equal (e.g., about 80 nM, 100 nM).
The relationship of Ki (independent of substrate concentration) to Kiapp is a function of substrate concentration in the assay and the Km for cleavage of the substrate by either memapsin 1 or memapsin 2 by the relationship:
An aliquot of the inhibitor of known concentration in DMSO was diluted into 1.8 ml 0.1 M NaOAc, pH 4.0. DMSO and added to a final concentration of 10% (v/v), and memapsin 2 (final concentration of 80 nM), followed by a 20 minute equilibration at 37° C. Compounds were evaluated for the ability to inhibit memapsin 1 and memapsin 2 at concentrations between about 10 nM and about 10 μm of inhibitor.
The relationship of Ki (independent of substrate concentration) to Kiapp is a function of substrate concentration in the assay and the Km for cleavage of the substrate by either memapsin 1 or memapsin 2 by the relationship: […]

plasma Aβ40 = experiment: Inhibition of Aβ production in transgenic mouse model of Alzheimer's disease (plasma Aβ40 ELISA); assay type: in vivo, APP/F mice; details: for Sustainment of inhibition of plasma Aβ40: over a 24-h period; for Blood brain barrier penetration (from reduction of plasma Aβ): transgenic mice; for Decrease in plasma Aβ40: within 30 minutes following i.p. injection of about 163 nanomoles
Method: Compounds MMI-138, MMI-165, and MMI-185 were synthesized as described above. Compounds were dissolved in 1 ml of dimethyl sulfoxide (DMSO) to a final concentration of about 1 mg/ml for MMI-165 and MMI-185, and about 10 mg/ml for MMI-138. […] Inhibitors were diluted into PBS or H2O immediately prior to injection, as described below. Inhibition constants were determined by methods described by Ermolieff, et al. (Biochem. 39:12450-12456 (2000), the teachings of which are incorporated hereby in their entirety).
The tg2576 strain of mice was obtained from Taconic (Germantown, N.Y.). The APP/F strain of mice were obtained by mating the tg2576 mice with the FVB/N strain. To determine presence of the Swedish APP gene in APP/F mice, the DNA from mice was isolated according to the Qiagen Dneasy™ Tissue Kit. PCR (Qiagen kit and protocol) was used to amplify the fragment of DNA corresponding to the human Swedish APP gene. The following primers were used: […]
At the age of three months, animals of the Alzheimer's disease mouse model APP/F were injected intraperitoneally (i.p.) with about 163 nanomoles of either compounds MMI-138 (molecular weight 674 g/mole; 110 μg per animal, n=2), MMI-165 (molecular weight 626 g/mole; 102 μg per animal, n=2), or MMI-185 (molecular weight 686; 112 μg per animal, n=2).
Heparinized capillary tubes collected blood samples from anesthetized animals from either the retro-orbital sinus or from the saphenous vein at specified intervals following injection. The blood samples were transferred to sterile 1.5 mL microcentrifuge tubes, centrifuged at 5,100 RPM for 10 minutes to recover the plasma (supernatant), and stored at −70° C. until analysis for the Aβ40 by Enzyme Linked-Immuno-Sorbent Assay (ELISA).
A sandwich ELISA (BioSource International, Camarillo, Calif.) was used to determine the levels of Aβ40 in plasma samples. The ELISA utilizes a primary antibody specific for human Aβ for the immobilization of the amino-terminus and a detection antibody specific for the carboxy-terminal amino acids of Aβ40. A conjugated secondary antibody was used to detect the ternary complex, using a stabilized chromogen substrate, quantifiable following addition of 1 M HCl, with the optical densities measured at 450 nm. The procedures were followed according to the BioSource protocol. Optical densities were converted to pg/ml quantities of Aβ40 using a linear regression of the optical densities of standards obtained from the commercial kit, to their known concentrations.

[1] = Table 9, read-out: Ki apparent Mep2
[2] = memapsin 2, apparent Ki in presence of substrate FS-2, read-out: Ki app
[3] = memapsin 2, independent of substrate, converted from Ki apparent, read-out: Ki
[4] = Table 9, read-out: Ki apparent Mep1

T1 sequence (P56817 41-454 limits assumed): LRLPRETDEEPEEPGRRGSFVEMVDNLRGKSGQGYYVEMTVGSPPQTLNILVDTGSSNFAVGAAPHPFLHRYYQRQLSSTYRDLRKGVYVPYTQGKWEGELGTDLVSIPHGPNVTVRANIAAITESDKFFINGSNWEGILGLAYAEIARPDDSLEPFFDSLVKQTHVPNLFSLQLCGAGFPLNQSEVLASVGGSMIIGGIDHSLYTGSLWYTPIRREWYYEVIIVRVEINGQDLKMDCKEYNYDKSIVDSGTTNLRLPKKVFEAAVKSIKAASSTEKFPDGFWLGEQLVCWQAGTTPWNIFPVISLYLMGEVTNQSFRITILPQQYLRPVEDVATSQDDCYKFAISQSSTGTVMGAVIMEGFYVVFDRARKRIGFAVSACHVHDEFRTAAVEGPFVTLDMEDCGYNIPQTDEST

| SMILES | % Inhibition Mep2 (memapsin 2) | Ki (memapsin 2; [2]) | Ki (memapsin 2; [3]) | % Inh (M1/M2) (memapsin 2) | Vi/Vo (memapsin 2) | % Inhibition Mep1 (memapsin 1) | also measured |
| --- | --- | --- | --- | --- | --- | --- | --- |
| CSCC[C@H](NC(=O)OCn1nc(C)cc1C)C(=O)N[C@@H](CC(C)C)[C@@H](O)C[C@@H](C)C(=O)N[C@H](C(=O)NC(C)C)C(C)C [MMI-165] | 60% | 24.5 nM | 15.3 nM | 0.45 | 0.4 | 27% | Ki (memapsin 2; [1]): 24.5 nM; Ki (memapsin 2; memapsin 2, read-out: Ki): 15.3 nM; Sustainment of inhibition of plasma Aβ40 (plasma Aβ40): remained nearly constant; Blood brain barrier penetration (from reduction of plasma Aβ) (plasma Aβ40): penetrated the blood brain barrier; Decrease in plasma Aβ40 (plasma Aβ40): 46% |
| CCCCNC(=O)[C@H](C(C)C)N1CC[C@@](C)(C[C@H](O)[C@H](CC(C)C)NC(=O)[C@H](CCSC)NC(=O)OCn2nc(C)cc2C)C1=O [MMI-182] | 34% | 447 nM | 280 nM | 0 | 0.66 | 0% | Ki (memapsin 2; Ki, [I] < 100, memapsin 2, [I] < 100 (nM)): 72.7 nM |
| CSCC[C@H](NC(=O)C(C)Cn1nc(C)cc1C)C(=O)N[C@@H](CC(C)C)[C@@H](O)C[C@@H](C)C(=O)N[C@H](C(=O)NCC(C)C)C(C)C (some centres unmarked) [MMI-196] |  | 28.8 nM | 18 nM |  |  |  | Ki (memapsin 2; [1]): 28.8 nM; Ki (memapsin 1; [4]): 0.351 µM |
| CSCC[C@H](NC(=O)OCCn1nc(C(C)C)cc1C(C)C)C(=O)N[C@@H](CC(C)C)[C@@H](O)C[C@@H](C)C(=O)N[C@H](C(=O)NCC(C)C)C(C)C [MMI-180] | 26% |  |  | 0 | 0.74 | 0% |  |
| CSCC[C@H](NC(=O)OCn1nc(C)cc1C)C(=O)N[C@@H](CC(C)C)[C@@H](O)C[C@@H](C)C(=O)N[C@@H](CC(C)C)C(=O)NC(CF)CF [MMI-171] | 45% | 63.9 nM | 40 nM | 0.18 | 0.55 | 8% |  |
| CSCC[C@H](NC(=O)OCn1nc(C)cc1C)C(=O)N[C@@H](CC(C)C)[C@@H](O)C[C@@H](C)C(=O)N[C@H](C(=O)NCc1ccccc1)C(C)C [MMI-138] | 72% | 14.2 nM |  | 0.10 |  | 7% | Ki (memapsin 2; [1]): 14.2 nM; Ki (memapsin 2; memapsin 2, read-out: Ki): 14.2 nM and 8.8 nM; Selectivity: Ki for memapsin 2 lower than Ki for memapsin 1 (memapsin 2): about 60 fold; Selectivity: Ki for memapsin 2 lower than Ki for memapsin 1 (memapsin 2; listed as 138): about 60 fold; Ki (memapsin 1; read-out: Ki for memapsin 1): 0.811 µM; Sustainment of inhibition of plasma Aβ40 (plasma Aβ40): remained nearly constant; Blood brain barrier penetration (from reduction of plasma Aβ) (plasma Aβ40): penetrated the blood brain barrier; Decrease in plasma Aβ40 (plasma Aβ40): 57% |
| CC(C)C[C@H](NC(=O)[C@H](CCS(C)(=O)=O)NC(=O)[C@@H](NC(=O)OC(C)(C)C)C(C)C)[C@@H](O)C[C@@H](C)C(=O)N[C@@H](C(=O)NCc1ccccc1)[C@@H](C)O [MMI-073] | 52% |  |  | 0.73 | 0.48 | 38% |  |
| CSCC[C@H](NC(=O)OCn1nc(C)cc1C)C(=O)N[C@@H](CC(C)C)[C@@H](O)C[C@@H](C)C(=O)N[C@H](C(=O)NCC(C)C)C(C)C [MMI-156] | 68% | 3.03 nM | 1.89 nM | 0.47 | 0.32 | 32% |  |
| CC(C)C[C@H](NC(=O)[C@H](CS(C)(=O)=O)NC(=O)[C@@H](NC(=O)OC(C)(C)C)C(C)C)[C@@H](O)C[C@@H](C)C(=O)N[C@H](C(=O)NCc1ccccc1)C(C)C [MMI-026] |  | 16 nM | 9.97 nM |  |  |  | Ki (memapsin 2; [1]): 15.9 nM; Ki (memapsin 1; [4]): 0.0447 µM |
| COCC[C@H](NC(=O)[C@H](CC(C)C)NC(=O)OC(C)(C)C)C(=O)N[C@@H](CC(C)C)[C@@H](O)C[C@@H](C)C(=O)N[C@@H](CC(C)C)C(=O)NC(C)C [MMI-185] |  | 7.23 nM | 4.52 nM |  |  |  | Ki (memapsin 2; memapsin 2, read-out: Ki): 4.5 nM; Sustainment of inhibition of plasma Aβ40 (plasma Aβ40): appeared to return to initial level; Blood brain barrier penetration (from reduction of plasma Aβ) (plasma Aβ40): penetrated the blood brain barrier; Decrease in plasma Aβ40 (plasma Aβ40): 63% |
| CSCC[C@H](NC(=O)[C@@H](NC(=O)OC(C)(C)C)C(C)C)C(=O)N[C@@H](CC(C)C)[C@@H](O)C[C@@H](C)C(=O)N[C@@H](CC(C)C)C(=O)NCc1ccco1 [MMI-116] | 56% | 49 nM | 30.6 nM | 1.52 | 0.29 | 85% |  |
| CSCC[C@H](NC(=O)OCn1nc(C)cc1C)C(=O)N[C@@H](CC(C)C)[C@@H](O)C[C@]1(C)CCN([C@@H](CC(C)C)C(=O)NCC(C)C)C1=O [MMI-181] | 47% | 393 nM | 246 nM | 0.19 | 0.53 | 9% |  |
| CSCC[C@H](NC(=O)[C@@H](NC(=O)OC(C)(C)C)C(C)C)C(=O)N[C@@H](CC(C)C)[C@@H](O)C[C@@H](CO)C(=O)N[C@H](C(=O)NCc1ccccc1)C(C)C [MMI-078] |  |  |  |  | 0.63 |  | % Inhibition Mep2 (memapsin 2; listed as 78): 37%; % Inh (M1/M2) (memapsin 2; listed as 78): 0.76; % Inhibition Mep1 (memapsin 1; listed as 78): 28% |
| CSCC[C@H](NC(=O)OCCn1nc(C)cc1C)C(=O)N[C@@H](CC(C)C)[C@@H](O)C[C@@H](C)C(=O)N[C@@H](CC(C)C)C(=O)NCC(C)C [MMI-176] | 47% | 111 nM | 69.1 nM | 0 | 1 | 0% |  |

Source: patent US20040121947A1, “Compounds which inhibit beta-secretase activity and methods of use thereof” (Oklahoma Medical Research Foundation, priority 2000, published 2004)
